Results taken from patent publication US20230051589A1, “COMPOUNDS AND COMPOSITIONS FOR TREATING CONDITIONS ASSOCIATED WITH NLRP ACTIVITY” (Novartis AG, priority 2018, published 2023).

System: IL-1β production in PMA-differentiated THP-1 cells
Experiment: IL-1β production in PMA-differentiated THP-1 cells stimulated with gramicidin (hTHP-1 assay, 2% fetal bovine serum; Procedures 1-3)
Format: cell-based, human
Conditions: Homo sapiens, THP-1, Table B3; hTHP-1 assay containing 2% fetal bovine serum, gramicidin stimulation, IL-1β readout; read-out: hTHP-1 IC50
Method in brief: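 IL-1β released into supernatants was read by HTRF after 2 h gramicidin (5 μM) challenge. Before challenge, compounds (3-fold dilutions, top 100 μM, 0.37% DMSO) were given 1 h on THP-1 cells differentiated with PMA (20 ng/ml, 16-18 h) and held in 2% FBS medium.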

| SMILES | IC50 [µM] |
| --- | --- |
| CN(C)C1CCc2cc(S(N)(=O)=NC(=O)Nc3c4c(cc5c3CCC5)CCC4)sc2C1 (centres unmarked) [Example 752, 6-(Dimethylamino)-N′-((1,2,3,5,6,7-hexahydro-s-indacen-4-yl)carbamoyl)-4,5,6,7-tetrahydrobenzo[b]thiophene-2-sulfonimidamide] | 1 to 5 |
| CN(C)CC(C)(C)c1ccc(S(N)(=O)=NC(=O)Nc2c3c(cc4c2CCC4)CCC3)cc1 (centres unmarked) [Example 764, 4-(1-(Dimethylamino)-2-methylpropan-2-yl)-N′-((1,2,3,5,6,7-hexahydro-s-indacen-4-yl)carbamoyl)benzenesulfonimidamide] | 1 to 5 |
| C[C@](O)(COCCOCc1ccccc1)c1ccc(S(N)(=O)=NC(=O)Nc2c3c(cc4c2CCC4)CCC3)s1 (mixture of isomers) [Example 747, (S) and (R)-5-((S)-1-(2-(benzyloxy)ethoxy)-2-hydroxypropan-2-yl)-N′-((1,2,3,5,6,7-hexahydro-s-indacen-4-yl)carbamoyl)thiophene-2-sulfonimidamide] | 0.2 to 1 |

Same assay, conditions: Homo sapiens, THP-1, hTHP-1 assay containing 2% fetal bovine serum, Table B2, class symbols; read-out: IC50

| SMILES | IC50 [µM] |
| --- | --- |
| CCn1ccc([S@@](N)(=O)=NC(=O)Nc2c3c(cc4c2CC4)CCC3)n1 [Compound 916b] | 1 to 5 |
| CN1CCN(Cc2ccc([S@](N)(=O)=NC(=O)Nc3c4c(cc5c3CCC5)CCC4)cc2)CC1 [Example 707, (R)-N′-((1,2,3,5,6,7-hexahydro-s-indacen-4-yl)carbamoyl)-4-((4-methylpiperazin-1-yl)-methyl)benzenesulfonimidamide] | 1 to 5 |
| CC(C)(O)c1ncc(S(N)(=O)=NC(=O)Nc2c3c(c(Cl)c4c2CCC4)CCC3)s1 (centres unmarked) [Example 450, N′-((8-chloro-1,2,3,5,6,7-hexahydro-s-indacen-4-yl)carbamoyl)-2-(2-hydroxypropan-2-yl)thiazole-5-sulfonimidamide] | 0.04 to 0.2 |
| CC(C)(O)c1csc(S(N)(=O)=NC(=O)Nc2c3c(cc4c2C(=O)CC4)CCC3)c1 (centres unmarked) [Example 466, 4-(2-Hydroxypropan-2-yl)-N′-((3-oxo-1,2,3,5,6,7-hexahydro-s-indacen-4-yl)carbamoyl)thiophene-2-sulfonimidamide] | 0.2 to 1 |
| CNC(C)(C)c1ccc(S(N)(=O)=NC(=O)Nc2c3c(cc4c2CCC4)CCC3)c(F)c1 (centres unmarked) [Example 451, 2-Fluoro-N′-(1,2,3,5,6,7-hexahydros-indacen-4-ylcarbamoyl)-4-(2-(methylamino)propan-2-yl)benzenesulfonimidamideonimidamide] | 0.2 to 1 |
| C[C@@](O)(COCCO)c1ncc(S(N)(=O)=NC(=O)Nc2c3c(cc4c2CCC4)CCC3)s1 (stereo partly drawn) [Example 677, N′-((1,2,3,5,6,7-hexahydro-s-indacen-4-yl)carbamoyl)-2-((R)-2-hydroxy-1-(2-hydroxyethoxy)propan-2-yl)thiazole-5-sulfonimidamide] | 0.04 to 0.2 |
| NS(=O)(=NC(=O)Nc1c2c(cc3c1CCC3)CCC2)c1ccccc1 (centres unmarked) [Example 488, N′-((1,2,3,5,6,7-hexahydro-s-indacen-4-yl)carbamoyl)benzenesulfonimidamide] | 5 to 30 |
| CC(C)NCc1ccc([S@](N)(=O)=NC(=O)Nc2c3c(cc4c2CCC4)CCC3)cc1 [Example 706, (R)-N′-((1,2,3,5,6,7-hexahydro-s-indacen-4-yl)carbamoyl)-4-((isopropylamino)methyl)-benzenesulfonimidamide] | 1 to 5 |
| CC(C)(O)c1cc(S(N)(=O)=NC(=O)Nc2c3c(c(C#N)c4c2CCC4)CCC3)nn1-c1ccccc1 (centres unmarked) [Example 490, N′-((8-cyano-1,2,3,5,6,7-hexahydro-s-indacen-4-yl)carbamoyl)-5-(2-hydroxypropan-2-yl)-1-phenyl-1H-pyrazole-3-sulfonamide] | 0.2 to 1 |
| CC(C)(O)c1ncc(S(N)(=O)=NC(=O)Nc2cc3c(c4c2CCC4=O)CCC3)s1 (centres unmarked) [Example 435, 2-(2-hydroxypropan-2-yl)-N′-((1-oxo-1,2,3,6,7,8-hexahydro-as-indacen-4-yl)carbamoyl)thiazole-5-sulfonimidamide] | 5 to 30 |

Same assay, conditions: Homo sapiens, THP-1, hTHP-1 assay containing 2% fetal bovine serum, Table B2, given as bound; read-out: IC50

| SMILES | IC50 [µM] |
| --- | --- |
| C[C@@](O)(CO)c1ncc([S@](N)(=O)=NC(=O)Nc2c3c(cc4c2C(=O)CC4)CCC3)s1 [Compound 920a] | > 30 |

Same assay, conditions: Table B1; hTHP-1 assay containing 2% fetal bovine serum, gramicidin stimulation, IL-1β readout; read-out: hTHP-1 IC50 (average)

| SMILES | IC50 [µM] |
| --- | --- |
| CC(C)c1cc(C#N)cc(C(C)C)c1NC(=O)N=S(N)(=O)c1cc(C(C)(C)O)cc(C(C)(C)O)c1 (single isomer, unassigned) [Example 198, N′-((4-cyano-2,6-diisopropylphenyl)carbamoyl)-3,5-bis(2-hydroxypropan-2-yl)benzenesulfonimidamide] | 5 to 30 |
| COC1CN(Cc2ccc(S(N)(=O)=NC(=O)Nc3c4c(cc5c3CCC5)CCC4)cc2)C1 (single isomer, unassigned) [Example 379, (R) or (S)-N′-((1,2,3,5,6,7-hexahydro-s-indacen-4-yl)carbamoyl)-4-((3-methoxyazelidin-1-yl)-methyl)benzenesulfonimid-amide] | 1 to 5 |

Same assay, conditions: Table B3; hTHP-1 assay containing 2% fetal bovine serum, gramicidin stimulation, IL-1β readout; read-out: hTHP-1 IC50

| SMILES | IC50 [µM] |
| --- | --- |
| COC1CCc2c(csc2S(N)(=O)=NC(=O)Nc2c3c(cc4c2CCC4)CCC3)C1 (single isomer, unassigned) [Example 853, (R, S) or (S, S)-N′-((1,2,3,5,6,7-hexahydro-s-indacen-4-yl)carbamoyl)-5-methoxy-4,5,6,7-tetrahydrobenzo[c]thiophene-1-sulfonimidamide] | > 30 |
| CN1CCc2sc(S(N)(=O)=NC(=O)Nc3c4c(cc5c3CC5)CCC4)c(F)c2C1 (single isomer, unassigned) [Example 835, (R) or (S)-3-fluoro-5-methyl-N′-((2,4,5,6-tetrahydro-1H-cyclobuta[f]inden-3-yl)carbamoyl)-4,5,6,7-tetrahydrothieno[3,2-c]pyridine-2-sulfonimidamide] | 0.04 to 0.2 |
| NS(=O)(=NC(=O)Nc1c2c(cc3c1CC3)CCC2)c1nn(C(F)F)cc1F (single isomer, unassigned) [Example 840, (S) or (R)-1-(difluoromethyl)-4-fluoro-N′-((2,4,5,6-tetrahydro-1H-cyclobuta[f]inden-3-yl)carbamoyl)-1H-pyrazole-3-sulfonimidamide] | 1 to 5 |

Same assay, conditions: hTHP-1 assay containing 2% fetal bovine serum, Table B2, class symbols; read-out: IC50

| SMILES | IC50 [µM] |
| --- | --- |
| NS(=O)(=NC(=O)Nc1c2c(cc3c1CC3)CCC2)c1ccc(CN2CCC2)cc1F (single isomer, unassigned) [Example 525, (S) or (R)-4-(azetidin-1-ylmethyl)-2-fluoro-N′-((2,4,5,6-tetrahydro-1H-cyclobuta[f]inden-3 - yl)carbamoyl) benzenesulfonimidamide] | 5 to 30 |
| CN1CCc2sc(S(N)(=O)=NC(=O)Nc3c4c(cc5c3CCC5)CCC4)cc2C1 (single isomer, unassigned) [Example 688, (S) or (R)-N′-((1,2,3,5,6,7-hexahydro-s-indacen-4-yl)carbamoyl)-5-methyl-4,5,6,7-tetrahydrothieno [3,2-c]pyridine-2-sulfonimidamide] | 1 to 5 |
| CC(O)(CO)c1ncc(S(N)(=O)=NC(=O)Nc2c3c(cc4c2CCC4)CCC3)s1 (single isomer, unassigned) [Example 628, (S,S) or (R,S)-1,2-dihydroxypropan-2-yl)-N′-((l,2,3,5,6,7-hexahydro-s-indacen-4-yl) carbamoyl) thiazole-5-sulfonimidamide] | 0.2 to 1 |

Same assay, conditions: hTHP-1 assay containing 2% fetal bovine serum, Table B2, given as bound; read-out: IC50

| SMILES | IC50 [µM] |
| --- | --- |
| CN(C)Cc1ccc([S@@](N)(=O)=NC(=O)Nc2c3c(cc4c2CCC4)CCC3)cc1F (single isomer, unassigned) [Example 604, (S) or (R)-4-((dimethylamino)methyl)-3-fluoro-N′-((1,2,3,5,6,7-hexahydro-s-indacen-4-yl)carbamoyl) benzenesulfonimidamide] | > 30 |
